From patent US20250353891A1 (MEDIMMUNE LIMITED, priority 2022, published 2025)
Starred links: 1 amine or outer side, 2 acyl side, 3 side chain; linkers in the order of their positions; H or OH if unused. Non-standard residues stand in square brackets, D forms with d. Residues, ends and D or L forms follow the SMILES beside them. Groups on a side chain read outwards from the residue. *: point of attachment. C20 diacid = O=C(O)CCCCCCCCCCCCCCCCCCC(=O)*; C18 diacid = O=C(O)CCCCCCCCCCCCCCCCC(=O)*; γGlu = O=C(O)[C@H](CCC(=O)[*:2])N[*:1]; αMeF = C[C@](N)(Cc1ccccc1)C(=O)O; AEEA = NCCOCCOCC(=O)O; Aib = CC(C)(N)C(=O)O

What was measured:
[1] = target: human glucagon receptor (hGCGR) (Homo sapiens, UniProt P47871); assay: cAMP production (HTRF) in CHO cells expressing hGCGR; format: cell-based; parameters: expressed in transfected cells; conditions: Table 7, peptides modified at position 20; cAMP in CHO hGCGR cells; geometric mean; read-out: hGluc-R EC50
human glucagon receptor (hGCGR), sequence (P47871 26-477): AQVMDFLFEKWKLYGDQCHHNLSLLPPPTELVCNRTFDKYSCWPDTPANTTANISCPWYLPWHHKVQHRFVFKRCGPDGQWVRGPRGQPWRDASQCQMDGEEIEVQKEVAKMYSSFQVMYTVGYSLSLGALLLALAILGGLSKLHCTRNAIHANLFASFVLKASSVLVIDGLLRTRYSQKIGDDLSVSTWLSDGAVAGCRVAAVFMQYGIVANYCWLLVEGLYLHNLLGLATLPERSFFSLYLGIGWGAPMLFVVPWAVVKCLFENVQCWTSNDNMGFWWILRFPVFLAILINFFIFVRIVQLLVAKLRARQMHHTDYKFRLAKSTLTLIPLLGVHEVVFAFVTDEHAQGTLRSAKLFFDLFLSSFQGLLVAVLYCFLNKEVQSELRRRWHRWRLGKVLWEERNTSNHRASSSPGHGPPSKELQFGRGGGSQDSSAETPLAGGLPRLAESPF
How it was run: (§1)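 Cells were resuspended in assay buffer at batch-optimized density, typically 1×10^5 cells/mL for hGLP-1R and 2×10^5 cells/mL for hGCGR. After 30 min incubation at room temperature with compound, cAMP was measured by two-step HTRF. EC50 values came from 4-parameter logistic fits of % Delta F.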

[2] = target: human GLP-1 receptor (hGLP-1R) (Homo sapiens, UniProt P43220); assay: cAMP production (HTRF) in CHO cells expressing hGLP-1R; format: cell-based; parameters: expressed in transfected cells; conditions: for EC50: Table 7, peptides modified at position 20, cAMP in CHO hGLP-1R cells, geometric mean, read-out: hGLP-1R EC50; for % Relative Potency Ratio: Table 7, % GLP-1R activity relative to GLP-1 / % GlucR activity relative to glucagon
human GLP-1 receptor (hGLP-1R), sequence (P43220 24-463): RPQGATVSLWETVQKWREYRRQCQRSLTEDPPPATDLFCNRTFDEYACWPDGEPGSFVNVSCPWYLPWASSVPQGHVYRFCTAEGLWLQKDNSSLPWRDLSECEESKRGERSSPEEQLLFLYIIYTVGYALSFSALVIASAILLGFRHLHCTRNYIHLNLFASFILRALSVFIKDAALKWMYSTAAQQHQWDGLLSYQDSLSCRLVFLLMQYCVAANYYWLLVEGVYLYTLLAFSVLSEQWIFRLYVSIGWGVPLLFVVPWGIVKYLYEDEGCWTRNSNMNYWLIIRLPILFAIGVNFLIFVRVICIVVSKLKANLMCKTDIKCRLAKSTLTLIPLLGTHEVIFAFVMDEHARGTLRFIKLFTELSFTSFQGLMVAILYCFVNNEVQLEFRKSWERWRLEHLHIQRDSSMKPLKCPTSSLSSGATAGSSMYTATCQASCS
How it was run: as §1

SMILES	EC50 [1] [nM]	EC50 [2] [nM]	% Relative Potency Ratio [2]
CC[C@H](C)[C@H](NC(=O)[C@H](Cc1c[nH]c2ccccc12)NC(=O)[C@H](CCC(N)=O)NC(=O)[C@@H](NC(=O)[C@H](Cc1ccccc1)NC(=O)[C@H](CC(=O)O)NC(=O)[C@H](CCCCNC(=O)COCCOCCNC(=O)COCCOCCNC(=O)CC[C@H](NC(=O)CCCCCCCCCCCCCCCCC(=O)O)C(=O)O)NC(=O)[C@H](C)NC(=O)C(C)(C)NC(=O)[C@H](CCCNC(=N)N)NC(=O)[C@H](CO)NC(=O)[C@H](CC(=O)O)NC(=O)[C@H](CC(C)C)NC(=O)[C@](C)(Cc1ccccc1)NC(=O)[C@H](CCCCN)NC(=O)[C@H](CO)NC(=O)[C@@H](NC(=O)[C@H](CC(=O)O)NC(=O)[C@H](CO)NC(=O)[C@@H](NC(=O)[C@](C)(Cc1ccccc1)NC(=O)[C@H](CO)NC(=O)CNC(=O)[C@H](Cc1c[nH]cn1)NC(=O)C(C)(C)NC(=O)[C@@H](N)Cc1c[nH]cn1)[C@@H](C)O)C(C)C)C(C)C)C(=O)N[C@@H](C)C(=O)N[C@@H](CC(N)=O)C(=O)N[C@H](C(N)=O)[C@@H](C)O [Peptide 206] (H-H[Aib]HGS[αMeF]TSDVSK[αMeF]LDSR[Aib]AK([AEEA-AEEA-γGlu-C18 diacid])DFVQWIANT-NH2)	0.0182	0.0709	0.5
CC[C@H](C)[C@H](NC(=O)C(C)(C)NC(=O)[C@H](CCC(N)=O)NC(=O)[C@@H](NC(=O)[C@H](Cc1ccccc1)NC(=O)[C@H](CC(=O)O)NC(=O)[C@H](CCCCNC(=O)COCCOCCNC(=O)COCCOCCNC(=O)CC[C@H](NC(=O)CCCCCCCCCCCCCCCCC(=O)O)C(=O)O)NC(=O)[C@H](C)NC(=O)[C@H](C)NC(=O)[C@H](CCC(N)=O)NC(=O)[C@H](CO)NC(=O)[C@H](CC(=O)O)NC(=O)[C@H](CC(C)C)NC(=O)[C@](C)(Cc1ccccc1)NC(=O)[C@H](CCCCN)NC(=O)[C@H](CO)NC(=O)[C@@H](NC(=O)[C@H](CC(=O)O)NC(=O)[C@H](CO)NC(=O)[C@@H](NC(=O)[C@](C)(Cc1ccccc1)NC(=O)[C@H](CO)NC(=O)CNC(=O)[C@H](Cc1c[nH]cn1)NC(=O)C(C)(C)NC(=O)[C@@H](N)Cc1c[nH]cn1)[C@@H](C)O)C(C)C)C(C)C)C(=O)N[C@@H](C)C(=O)N[C@@H](CC(N)=O)C(=O)N[C@H](C(N)=O)[C@@H](C)O [Peptide 207] (H-H[Aib]HGS[αMeF]TSDVSK[αMeF]LDSQAAK([AEEA-AEEA-γGlu-C18 diacid])DFVQ[Aib]IANT-NH2)	0.0962	0.178	1.1
CC[C@H](C)[C@H](NC(=O)[C@H](Cc1c[nH]c2ccccc12)NC(=O)[C@H](CCC(N)=O)NC(=O)[C@@H](NC(=O)[C@H](Cc1ccccc1)NC(=O)[C@H](CC(=O)O)NC(=O)[C@H](CCCCNC(=O)CC[C@H](NC(=O)CCCCCCCCCCCCCCCCC(=O)O)C(=O)O)NC(=O)[C@H](C)NC(=O)[C@H](C)NC(=O)[C@H](CCCNC(=N)N)NC(=O)[C@H](CO)NC(=O)[C@H](CC(=O)O)NC(=O)[C@H](CC(C)C)NC(=O)[C@](C)(Cc1ccccc1)NC(=O)[C@H](CCCCN)NC(=O)[C@H](CO)NC(=O)[C@@H](NC(=O)[C@H](CC(=O)O)NC(=O)[C@H](CO)NC(=O)[C@@H](NC(=O)[C@H](Cc1ccccc1)NC(=O)[C@@H](NC(=O)CNC(=O)[C@H](CCC(N)=O)NC(=O)C(C)(C)NC(=O)[C@@H](N)Cc1c[nH]cn1)[C@@H](C)O)[C@@H](C)O)C(C)C)C(C)C)C(=O)N[C@@H](C)C(=O)N[C@@H](CC(N)=O)C(=O)N[C@H](C(N)=O)[C@@H](C)O [Peptide 208]	0.658	0.0644	20.2
CC[C@H](C)[C@H](NC(=O)[C@H](Cc1c[nH]c2ccccc12)NC(=O)[C@H](CCC(=O)O)NC(=O)[C@@H](NC(=O)[C@H](Cc1ccccc1)NC(=O)[C@H](CC(=O)O)NC(=O)[C@H](CCCCNC(=O)COCCOCCNC(=O)COCCOCCNC(=O)CC[C@H](NC(=O)CCCCCCCCCCCCCCCCC(=O)O)C(=O)O)NC(=O)[C@H](C)NC(=O)[C@H](C)NC(=O)[C@H](CCC(N)=O)NC(=O)[C@H](CO)NC(=O)[C@H](CC(=O)O)NC(=O)[C@H](CC(C)C)NC(=O)[C@](C)(Cc1ccccc1)NC(=O)[C@H](CCCCN)NC(=O)[C@H](CO)NC(=O)[C@@H](NC(=O)[C@H](CC(=O)O)NC(=O)[C@H](CO)NC(=O)[C@@H](NC(=O)[C@](C)(Cc1ccccc1)NC(=O)[C@H](CO)NC(=O)CNC(=O)[C@H](Cc1c[nH]cn1)NC(=O)C(C)(C)NC(=O)[C@@H](N)Cc1c[nH]cn1)[C@@H](C)O)C(C)C)C(C)C)C(=O)N[C@@H](C)C(=O)N[C@@H](CC(N)=O)C(=O)N[C@H](C(N)=O)[C@@H](C)O [Peptide 209] (H-H[Aib]HGS[αMeF]TSDVSK[αMeF]LDSQAAK([AEEA-AEEA-γGlu-C18 diacid])DFVEWIANT-NH2)	0.0426	0.127	0.7
CC[C@H](C)[C@H](NC(=O)[C@H](Cc1c[nH]c2ccccc12)NC(=O)[C@H](CCC(=O)O)NC(=O)[C@@H](NC(=O)[C@H](Cc1ccccc1)NC(=O)[C@H](CC(=O)O)NC(=O)[C@H](CCCCNC(=O)COCCOCCNC(=O)COCCOCCNC(=O)CC[C@H](NC(=O)CC[C@H](NC(=O)CCCCCCCCCCCCCCCCC(=O)O)C(=O)O)C(=O)O)NC(=O)[C@H](C)NC(=O)[C@H](C)NC(=O)[C@H](CCC(N)=O)NC(=O)[C@H](CO)NC(=O)[C@H](CC(=O)O)NC(=O)[C@H](CC(C)C)NC(=O)[C@](C)(Cc1ccccc1)NC(=O)[C@H](CCCCN)NC(=O)[C@H](CO)NC(=O)[C@@H](NC(=O)[C@H](CC(=O)O)NC(=O)[C@H](CO)NC(=O)[C@@H](NC(=O)[C@](C)(Cc1ccccc1)NC(=O)[C@H](CO)NC(=O)CNC(=O)[C@H](Cc1c[nH]cn1)NC(=O)C(C)(C)NC(=O)[C@@H](N)Cc1c[nH]cn1)[C@@H](C)O)C(C)C)C(C)C)C(=O)N[C@@H](C)C(=O)N[C@@H](CC(N)=O)C(=O)N[C@H](C(N)=O)[C@@H](C)O [Peptide 210] (H-H[Aib]HGS[αMeF]TSDVSK[αMeF]LDSQAAK([AEEA-AEEA-γGlu-γGlu-C18 diacid])DFVEWIANT-NH2)	0.0937	0.156	1.2
CC[C@H](C)[C@H](NC(=O)[C@H](Cc1c[nH]c2ccccc12)NC(=O)[C@H](CCC(N)=O)NC(=O)[C@@H](NC(=O)[C@H](Cc1ccccc1)NC(=O)[C@H](CC(=O)O)NC(=O)[C@H](CCCCNC(=O)COCCOCCNC(=O)COCCOCCNC(=O)CC[C@H](NC(=O)CC[C@H](NC(=O)CCCCCCCCCCCCCCCCCCC(=O)O)C(=O)O)C(=O)O)NC(=O)[C@H](C)NC(=O)[C@H](C)NC(=O)[C@H](CCCNC(=N)N)NC(=O)[C@H](CO)NC(=O)[C@H](CC(=O)O)NC(=O)[C@H](CC(C)C)NC(=O)[C@](C)(Cc1ccccc1)NC(=O)[C@H](CCCCN)NC(=O)[C@H](CO)NC(=O)[C@@H](NC(=O)[C@H](CC(=O)O)NC(=O)[C@H](CO)NC(=O)[C@@H](NC(=O)[C@](C)(Cc1ccccc1)NC(=O)[C@H](CO)NC(=O)CNC(=O)[C@H](Cc1c[nH]cn1)NC(=O)C(C)(C)NC(=O)[C@@H](N)Cc1c[nH]cn1)[C@@H](C)O)C(C)C)C(C)C)C(=O)N[C@@H](C)C(=O)N[C@@H](CC(N)=O)C(=O)N[C@H](C(N)=O)[C@@H](C)O [Peptide 211] (H-H[Aib]HGS[αMeF]TSDVSK[αMeF]LDSRAAK([AEEA-AEEA-γGlu-γGlu-C20 diacid])DFVQWIANT-NH2)	0.0609	0.167	0.7
